Measured values as given in publication PMC13042316 (Open journal of immunology, 2011).

Biological target: recombinant human MBL (mannose-binding lectin) (Homo sapiens, UniProt P11226)
Test: ELISA, inhibition of MBL binding to immobilised mannan

Sequence of recombinant human MBL (mannose-binding lectin) (P11226 21-248): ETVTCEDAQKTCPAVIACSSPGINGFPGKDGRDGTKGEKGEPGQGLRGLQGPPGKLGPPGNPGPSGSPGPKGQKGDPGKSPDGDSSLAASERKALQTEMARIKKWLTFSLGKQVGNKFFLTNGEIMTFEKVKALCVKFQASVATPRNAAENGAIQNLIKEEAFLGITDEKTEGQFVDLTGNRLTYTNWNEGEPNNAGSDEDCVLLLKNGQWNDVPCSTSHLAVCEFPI

IC50: > 11 mM
Structure (SMILES): OC[C@H]1O[C@@](CO)(O[C@H]2O[C@H](CO)[C@@H](O)[C@H](O)[C@H]2O)[C@@H](O)[C@@H]1O [sucrose]
